This note sets out measurements from PubChem BioAssay AID1996.

≈ marks a conversion by molar mass, not a printed value.

For the data set the following is noted: buffer; pH 7.4; 200.0 µM.
By solubility (kinetic) is commonly meant solubility judged after dilution from a stock solution rather than from solid. As for `O=C(/C=C/c1ccccc1)Nc1cccnc1Cl`, the solubility (kinetic) was found to be 38.8 µg/mL (≈ 150 µM).

As to `O=C(CSc1nc2c(c(=O)[nH]1)CCC2)Nc1ccc(F)cc1`, the solubility (kinetic) turned out to be 10.7 µg/mL (≈ 33.5 µM). Compared with the last molecule, the solubility kinetic is about 3.6-fold lower.

Take `CN(c1ccccc1)S(=O)(=O)c1cccc(C(=O)NCC(=O)Nc2ccc(F)c(F)c2F)c1`: the kinetic solubility stood at 5.3 µg/mL (≈ 11.1 µM).

Consider `Cc1cccc(C)c1NC(=S)N(CCN(C)C)C(C)c1ccccn1` (centres undefined), for which the kinetic solubility is more than 53.5 µg/mL.

The molecule `Cc1ccc(S(=O)(=O)Nc2ccc3c(c2)nc(C)n3C)cc1` came in with a solubility (kinetic) of 0.8 µg/mL (≈ 2.54 µM).

The molecule `O=C(NCCc1ccccc1F)c1cccc2cccnc12` registered a kinetic solubility of 31.4 µg/mL (≈ 107 µM).

The molecule `Cc1ccccc1Oc1nc2c(c(=O)n(C)c(=O)n2C)n1C` registered a solubility (kinetic) of more than 45 µg/mL.

In turn, `CCCC1CCC(c2ccc(/C(N)=N/O)cc2)CC1` (centres undefined) showed a solubility (kinetic) of less than 0.3 µg/mL.

For the molecule `COc1ccccc1OCC(=O)Nc1ccc2c(c1)OCCO2`, the kinetic solubility turned out to be 39.1 µg/mL (≈ 124 µM).

Molecule `CN1C(N)=NC(=O)/C1=C/c1ccc(F)cc1` gave a kinetic solubility of more than 32.9 µg/mL.

Regarding `O=C(Nc1nccs1)c1ccc2ccccc2c1`, the kinetic solubility stood at 1.3 µg/mL (≈ 5.11 µM).

Molecule `COc1ccc(NC(=O)c2ccc(S(=O)(=O)N3CC(C)OC(C)C3)cc2)cc1` (centres undefined) returned a kinetic solubility of 7.8 µg/mL (≈ 19.3 µM).

As to `CCOC(=O)C(=O)Nc1ccccc1C(=O)OC`, the solubility (kinetic) is more than 37.7 µg/mL.

As to `CCOC(=O)COn1c(=O)c(-c2ccc(F)cc2)[n+]([O-])c2ccccc21`, the solubility (kinetic) was 3.8 µg/mL (≈ 10.6 µM).

`Cc1cc(C)c(N2C(=O)CCCC2=O)c(Cl)c1` gave a solubility (kinetic) of more than 37.8 µg/mL.

Regarding `CCNc1nc(NC(C)(C)C)nc(SC)n1`, the solubility (kinetic) was found to be 35.9 µg/mL (≈ 149 µM).

`Cc1ccc(N(CC(=O)N2CCCC2)S(C)(=O)=O)c(C)c1` gave a solubility (kinetic) of more than 46.6 µg/mL.

For the molecule `Cc1ccc(NC(=O)NC2CCCCCCC2)c(C)c1`, the kinetic solubility is less than 0.3 µg/mL.

On to `Cc1sc2ncnc(N3CCC(C(=O)Nc4ccc(OC(F)F)c(Cl)c4)CC3)c2c1C`, for which the solubility (kinetic) worked out at 5.7 µg/mL (≈ 12.2 µM).

The molecule `Cc1cc(C(=O)NCCc2ccc(Cl)cc2)c(C)o1` yielded a kinetic solubility of 31.1 µg/mL (≈ 112 µM). This solubility kinetic is about 5.5-fold higher than that of the molecule before.

As to `Cc1cc(C(C)(C)C)cc(C)c1CCNC(=O)c1ccc[n+]([O-])c1`, the kinetic solubility is more than 49 µg/mL.

The molecule `S=c1[nH]c2cc3c(cc2[nH]1)OCCO3` displayed a kinetic solubility of 19.7 µg/mL (≈ 94.6 µM).

As to `O=C(Nc1cccc([N+](=O)[O-])c1)C1C2CC/C=C\CCC21` (centres undefined), the kinetic solubility is 0.8 µg/mL (≈ 2.79 µM).

`CNc1nc(N)c([N+](=O)[O-])c(Nc2ccccc2OC)n1`: the solubility (kinetic) was determined as 0.7 µg/mL (≈ 2.41 µM). The solubility kinetic values of the last two molecules are within 1.5-fold of each other.

`Cc1ccc(NS(=O)(=O)c2ccccc2[N+](=O)[O-])cc1S(=O)(=O)N1CCCCC1` came in with a kinetic solubility of more than 65.9 µg/mL.

`O=C(Nc1cc(C(F)(F)F)ccc1N1CCOCC1)C1CCCO1` (centres undefined): the kinetic solubility is more than 51.6 µg/mL.

With `CC1CCc2sc(C(=O)OCC(=O)NC(C)C)cc2C1` (centres undefined), the solubility (kinetic) came out at 1.2 µg/mL (≈ 4.06 µM).

In turn, `O=C(NCC(c1cccs1)N1CCOCC1)c1cccnc1` (centres undefined) yielded a solubility (kinetic) of 43.6 µg/mL (≈ 137 µM).

For the molecule `Cc1cc(C(=O)OCC(=O)NCc2cccs2)ccc1[N+](=O)[O-]`, the solubility (kinetic) came to 4.8 µg/mL (≈ 14.4 µM).

`CCOc1c(Nc2ccccc2O)c(=O)c1=O` registered a kinetic solubility of more than 35 µg/mL.

In turn, `O=C(O)CCCN1C(=O)c2cccc3cccc(c23)C1=O` returned a solubility (kinetic) of 31.8 µg/mL (≈ 112 µM).

`CC1Cc2ccccc2N1NC(=O)c1ccc(Cl)c(S(N)(=O)=O)c1` (centres undefined) displayed a solubility (kinetic) of more than 54.9 µg/mL.

`CCCCNC(=O)c1cc2c(=O)n(CC)c3ccccc3c2s1` gave a kinetic solubility of less than 0.4 µg/mL.

In turn, `CSc1nc(C)[nH]c(=O)c1C#N` yielded a solubility (kinetic) of more than 27.2 µg/mL.

Consider `CCC(C)NC(=O)C1=CCN(S(=O)(=O)c2ccc(C)cc2)CC1` (centres undefined), for which the kinetic solubility is 43.5 µg/mL (≈ 129 µM).

In turn, `CCC(=O)N1CCc2cc(S(=O)(=O)Nc3ccccc3C)ccc21` had a kinetic solubility of less than 0.4 µg/mL.

Consider `COc1ccc(NC(=O)CSc2nc(C)cs2)c([N+](=O)[O-])c1`, for which the kinetic solubility was 45.1 µg/mL (≈ 133 µM).

The molecule `O=C(Nc1ccc(Cl)c(S(=O)(=O)N2CCOCC2)c1)c1cc2ccccc2oc1=O` showed a kinetic solubility of 2.4 µg/mL (≈ 5.35 µM). Compared with the last molecule, the solubility kinetic is about 19-fold lower.

With `O=S(=O)(c1ccc(-c2ccon2)s1)N1CCN(c2ccncc2)CC1`, the kinetic solubility stood at 37.8 µg/mL (≈ 100 µM).

On to `CCc1cccc(C)c1NC(=O)CSc1nnc(C)o1`, for which the kinetic solubility was more than 43.7 µg/mL.

Molecule `CCCCC(=O)NC1(C(F)(F)F)NC(=O)N(Cc2ccccc2)C1=O` (centres undefined) showed a kinetic solubility of 46.1 µg/mL (≈ 129 µM).

`COc1ccc(-c2nc(-c3ccncc3)no2)c(OC)c1` displayed a solubility (kinetic) of 6 µg/mL (≈ 21.2 µM).

Turning to `Cc1nc(NC(=O)c2ccccc2)sc1C`, the solubility (kinetic) worked out at 29.6 µg/mL (≈ 127 µM).

The molecule `COc1ccc(-c2nc(-c3cccnc3)no2)cc1` showed a kinetic solubility of 2.1 µg/mL (≈ 8.29 µM).

`Cc1cccc(Cn2c(=O)oc3ccc(C)cc32)c1`: the kinetic solubility worked out at 4.5 µg/mL (≈ 17.8 µM).

On to `CC(=O)Nc1ccc(S(=O)(=O)NCc2ccc(C)n2C)cc1`, for which the kinetic solubility was more than 48.2 µg/mL.

`O=C(Nc1ccc(S(=O)(=O)NC2=NCCCCC2)cc1)c1cccc(S(=O)(=O)N2CCOCC2)c1` registered a solubility (kinetic) of 51.5 µg/mL (≈ 98.9 µM).

Turning to `Cl.N=c1ccccn1Cc1ccccc1`, the solubility (kinetic) was more than 33.1 µg/mL.

For the molecule `Cc1cc(C(=O)Nc2ccccc2C(=O)O)oc1C`, the solubility (kinetic) was determined as 31.3 µg/mL (≈ 121 µM).

In turn, `CC(NC(=O)COC(=O)c1ccc[nH]c1=O)c1ccccc1` (centres undefined) yielded a kinetic solubility of more than 45 µg/mL.

`Cc1ccnc(N2CCCC(C(=O)NC3CC3)C2)n1` (centres undefined) returned a solubility (kinetic) of 37.3 µg/mL (≈ 143 µM).

Turning to `Cc1ccc(C2NCCS2)cc1` (centres undefined), the kinetic solubility was more than 26.9 µg/mL.

`Cc1csc(NC(=O)c2sccc2C)n1` gave a kinetic solubility of more than 35.7 µg/mL.

In the case of `CC(NC(=O)c1cccc(S(=O)(=O)N(C)c2ccccc2)c1)c1cccnc1` (centres undefined), the kinetic solubility is more than 59.3 µg/mL.

In the case of `COCCNC(=O)c1cc(Sc2nnc(C)s2)nc2ccccc12`, the solubility (kinetic) is more than 54.1 µg/mL.

`O=C(Nc1ccc2nccnc2c1)c1ccco1`: the kinetic solubility is more than 35.9 µg/mL.

In turn, `O=C(NCCCNC(=O)c1ccco1)c1cccc(F)c1` registered a kinetic solubility of more than 43.5 µg/mL.

Turning to `Cc1cccc(NC(=O)CN(c2ccc(F)cc2)S(C)(=O)=O)c1`, the solubility (kinetic) turned out to be 42.4 µg/mL (≈ 126 µM).

`Cc1ccc(N(CC(=O)Nc2c(C)cccc2C)S(C)(=O)=O)cc1` came in with a solubility (kinetic) of 35.1 µg/mL (≈ 101 µM).

`Cc1ccc(-c2nc(C#N)c(N3CCC(C(N)=O)CC3)o2)cc1`: the solubility (kinetic) came out at 1.6 µg/mL (≈ 5.16 µM).

As to `Cc1ccc(C23CC4CC(CC(CN)(C4)C2)C3)cc1.Cl`, the kinetic solubility is more than 43.8 µg/mL.

With `CCN(CC)c1ccc2c(C)c(Cl)c(=O)oc2c1`, the solubility (kinetic) amounted to 6.3 µg/mL (≈ 23.7 µM).

Regarding `CN(C)c1ccc(C(=O)N=c2sccn2C)cc1[N+](=O)[O-]`, the solubility (kinetic) is 1.4 µg/mL (≈ 4.57 µM).

On to `Cc1cccc(NC2SC(=O)NC2=O)c1` (centres undefined), for which the solubility (kinetic) was more than 33.3 µg/mL.

As for `Cc1csc2c(=O)sc(NC(=O)c3ccc(F)cc3Cl)nc12`, the solubility (kinetic) is less than 0.4 µg/mL.

`CC(=O)Nc1ccc(Sc2ccccc2C(=O)O)c(C(=O)O)c1`: the solubility (kinetic) turned out to be 42.3 µg/mL (≈ 128 µM).

In turn, `CC(=O)c1sc(-c2ccccc2)cc1NS(=O)(=O)c1ccc(C)cc1` had a kinetic solubility of 1.1 µg/mL (≈ 2.96 µM).

Molecule `COc1ccc(C(=O)OCC(=O)NC(C)CCc2ccccc2)cc1` (centres undefined) showed a solubility (kinetic) of 10.1 µg/mL (≈ 29.6 µM). This solubility kinetic is about 9.2-fold higher than that of the molecule before.

`COc1cc(C(=O)O/N=C(\N)c2cccc([N+](=O)[O-])c2)cc(OC)c1OC` returned a solubility (kinetic) of 0.3 µg/mL (≈ 0.799 µM). This solubility kinetic lies about 34-fold lower than the previous one.

Consider `O=C(Cn1cccc1C(=O)c1ccccc1)NCc1ccc(Cl)cc1`, for which the kinetic solubility was found to be 1.1 µg/mL (≈ 3.12 µM).

Consider `O=C(Cn1c(=O)oc2ccccc21)Nc1ccccc1C(F)(F)F`, for which the kinetic solubility is 10 µg/mL (≈ 29.7 µM). This solubility kinetic is about 9.1-fold higher than that of the molecule before.

Consider `COc1ccc(O)c(/C=N/c2sc(C)c(C)c2C#N)c1`, for which the kinetic solubility was determined as 1 µg/mL (≈ 3.49 µM).

In turn, `COc1ccccc1/C=C/C(=O)OCC(=O)N1CCCCC1` showed a solubility (kinetic) of more than 45.5 µg/mL.

Take `CCCCc1ccc(NC(=S)N2CCN(c3ccccn3)CC2)cc1`: the solubility (kinetic) is 0.8 µg/mL (≈ 2.26 µM).
